Results as given in EP0674651B1, “SUBSTITUTED 6-AZAANDROSTENONES” (priority 1992, dated 1994).

Legend:
[1] = molecular target: T1, human type 2 5α-reductase (Homo sapiens, UniProt P31213); experiment: 5α-reductase in vitro inhibitory activity, human type 2
T1 sequence (P31213 1-254): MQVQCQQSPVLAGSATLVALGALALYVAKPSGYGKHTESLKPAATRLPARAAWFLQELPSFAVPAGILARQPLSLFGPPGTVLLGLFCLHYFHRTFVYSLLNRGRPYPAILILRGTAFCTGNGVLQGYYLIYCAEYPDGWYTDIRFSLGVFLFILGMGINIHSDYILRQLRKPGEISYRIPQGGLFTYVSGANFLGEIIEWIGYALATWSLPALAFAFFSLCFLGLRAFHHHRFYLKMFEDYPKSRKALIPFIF
Experimental: (§1) Microsomes were prepared by homogenization of the tissue or cells, followed by differential centrifugation of the homogenate. […] Corresponding incubations were carried out with no test compound as a control study.
The percentage of conversion of testosterone to DHT in the presence of test compounds compared to the corresponding conversion in the control study was estimated using high pressure liquid chromatography (HPLC) with radiochemical detection.

[2] = molecular target: T2, human type 1 5α-reductase (Homo sapiens, UniProt P18405); experiment: 5α-reductase in vitro inhibitory activity, human type 1
T2 sequence (P18405 1-259): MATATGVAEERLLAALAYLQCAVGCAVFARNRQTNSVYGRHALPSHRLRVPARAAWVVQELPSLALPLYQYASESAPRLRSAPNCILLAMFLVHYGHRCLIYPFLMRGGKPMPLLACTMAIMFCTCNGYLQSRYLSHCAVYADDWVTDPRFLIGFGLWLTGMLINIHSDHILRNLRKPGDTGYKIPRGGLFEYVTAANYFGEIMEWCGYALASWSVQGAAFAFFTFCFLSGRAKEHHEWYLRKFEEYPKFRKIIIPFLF
Experimental: as §1
For type 2 IC50 measurements, assay components except testosterone were preincubated for 20 minutes at pH 6.0, and following the addition of 8nM testosterone the assays were allowed to proceed for 20-40 minutes. The percentage of conversion of testosterone to DHT in the presence of test compounds compared to the corresponding conversion in the control study was estimated using high pressure liquid chromatography (HPLC) with radiochemical detection.

Row | SMILES | IC50 [1] | IC50 [2]
1 | CCc1cc(-c2ccc(Cl)cc2)cc(CC)c1NC(=O)[C@H]1CC[C@H]2[C@@H]3CNC4=CC(=O)CC[C@]4(C)[C@H]3CC[C@]12C [Compound 140, 17β-N-(2,6-Diethyl-4-(4-chlorophenyl))phenyl-carbamoyl-6-azaandrost-4-en-3-one] | < 10 nM | < 10 nM
2 | C[C@]12CC[C@H]3[C@@H](CNC4=CC(=O)CC[C@@]43C)[C@@H]1CC[C@@H]2C(=O)Nc1cccc2c1C(=O)c1ccccc1-2 [Compound 138, 17β-N-1-(9-Fluorenonyl)-carbamoyl-6-azaandrost-4-en-3-one] | < 10 nM | 10 to 100 nM
3 | CC1=C2NC[C@H]3[C@@H]4CC[C@H](C(=O)Nc5cc(C(F)(F)F)ccc5C(C)(C)C)[C@@]4(C)CC[C@@H]3[C@@]2(C)CCC1=O [Compound 117, 17β-N-(2-t-Butyl-5-trifluoromethyl)phenyl-carbamoyl-6-azaandrost-4-methyl-4-en-3-one] | < 10 nM | < 10 nM
4 | CC(C)(C)c1ccc(C(F)(F)F)cc1NC(=O)[C@H]1CC[C@H]2[C@@H]3CNC4=C(Cl)C(=O)CC[C@]4(C)[C@H]3CC[C@]12C [Compound 127, 17β-N-(2-t-Butyl-5-trifluoromethyl)phenyl-carbamoyl-6-azaandrost-4-chloro-4-en-3-one] | < 10 nM | < 10 nM
5 | CC(C)(C)c1ccc(C(F)(F)F)cc1NC(=O)[C@H]1CC[C@H]2[C@@H]3CNC4=CC(=O)CC[C@]4(C)[C@H]3CC[C@]12C [Compound 87, 17β-N-(2-t-Butyl-5-trifluoromethyl)phenyl-carbamoyl-6-azaandrost-4-en-3-one] | < 10 nM | < 10 nM
6 | CC(C)(C)c1ccc(C2(NC(=O)[C@H]3CC[C@H]4[C@@H]5CNC6=C(Cl)C(=O)CC[C@]6(C)[C@H]5CC[C@]34C)CCCCC2)cc1 [Compound 139, 17β-N-1-(4-t-Butylphenyl)cyclohexyl-carbamoyl-6-azaandrost-4-chloro-4-en-3-one] | < 10 nM | < 10 nM
7 | COc1ccc(C2(NC(=O)[C@H]3CC[C@H]4[C@@H]5CNC6=CC(=O)CC[C@]6(C)[C@H]5CC[C@]34C)CCCCC2)cc1 [Compound 111, 17β-N-1-(4-Methoxyphenyl)cyclohexyl-carbamoyl-6-azaandrost-4-en-3-one] | < 10 nM | < 10 nM
8 | CC(C)(C)c1ccc(C2(NC(=O)[C@H]3CC[C@H]4[C@@H]5CNC6=CC(=O)CC[C@]6(C)[C@H]5CC[C@]34C)CCOCC2)cc1 [Compound 145, 17β-N-4-(4-t-Butylphenyl)tetrahydropyranyl-carbamoyl-6-azaandrost-4-en-3-one] | < 10 nM | < 10 nM
9 | CC(C)(C)c1ccc(-c2ccccc2)cc1NC(=O)[C@H]1CC[C@H]2[C@@H]3CNC4=CC(=O)CC[C@]4(C)[C@H]3CC[C@]12C [Compound 88, 17β-N-(2-t-Butyl-5-phenyl)phenyl-carbamoyl-6-azaandrost-4-en-3-one] | < 10 nM | < 10 nM
10 | CC1=C2NC[C@H]3[C@@H]4CC[C@H](C(=O)Nc5cc(C(F)(F)F)ccc5C(F)(F)F)[C@@]4(C)CC[C@@H]3[C@@]2(C)CCC1=O [Compound 116, 17β-N-(2,5-bis(Trifluoromethyl))phenyl-carbamoyl-6-azaandrost-4-methyl-4-en-3-one] | < 10 nM | < 10 nM
11 | CC(C)(C)NC(=O)c1ccc(C(F)(F)F)cc1NC(=O)[C@H]1CC[C@H]2[C@@H]3CNC4=CC(=O)CC[C@]4(C)[C@H]3CC[C@]12C [Compound 142, 17β-N-(2-t-Butylcarbamoyl-5-trifluoromethyl)phenyl-carbamoyl-6-azaandrost-4-en-3-one] | < 10 nM | > 100 nM
12 | CC1=C2NC[C@H]3[C@@H]4CC[C@H](C(=O)Nc5cc(C(C)(C)C)ccc5C(C)(C)C)[C@@]4(C)CC[C@@H]3[C@@]2(C)CCC1=O [Compound 118, 17β-N-(2,5-Di-t-butyl)phenyl-carbamoyl-6-azaandrost-4-methyl-4-en-3-one] | < 10 nM | < 10 nM
13 | C[C@]12CC[C@H]3[C@@H](CNC4=CC(=O)CC[C@@]43C)[C@@H]1CC[C@@H]2C(=O)N1CCC(Cc2ccccc2)CC1 [Compound 37, 17β-N-(4-Benzyl)piperidyl-carbamoyl-6-azaandrost-4-en-3-one] | < 10 nM | 10 to 100 nM
14 | C[C@]12CC[C@H]3[C@@H](CNC4=CC(=O)CC[C@@]43C)[C@@H]1CC[C@@H]2CNC(=O)NC12CC3CC(CC(C3)C1)C2 [Compound 98, 17β-Aminomethyl-(1-adamantylurea)-6-azaandrost-4-en-3-one] | < 10 nM | < 10 nM
15 | C[C@]12CC[C@H]3[C@@H](CNC4=CC(=O)CC[C@@]43C)[C@@H]1CC[C@@H]2C(=O)NC(c1ccc(F)cc1)c1ccc(F)cc1 [Compound 24, 17β-N-Bis-(4-fluorophenyl)methyl-carbamoyl-6-azaandrost-4-en-3-one] | – | 10 to 100 nM

Continued, values first:

Row | IC50 [1] | IC50 [2] | SMILES
16 | < 10 nM | 10 to 100 nM | COc1cc(Cl)cc(NC(=O)[C@H]2CC[C@H]3[C@@H]4CNC5=CC(=O)CC[C@]5(C)[C@H]4CC[C@]23C)c1 [Compound 113, 17β-N-(3-Methoxy-5-chloro)phenyl-carbamoyl-6-azaandrost-4-en-3-one]
17 | < 10 nM | 10 to 100 nM | CC(C)(C)c1ccc(C#N)cc1NC(=O)[C@H]1CC[C@H]2[C@@H]3CNC4=CC(=O)CC[C@]4(C)[C@H]3CC[C@]12C [Compound 78, 17β-N-(2-t-Butyl-5-cyano)phenyl-carbamoyl-6-azaandrost-4-en-3-one]
18 | < 10 nM | > 100 nM | C[C@]12CC[C@H]3[C@@H](CNC4=CC(=O)CC[C@@]43C)[C@@H]1CC[C@@H]2C(=O)Nc1cccc(C(=O)O)c1 [Compound 137, 17β-N-(3-Carboxy)phenyl-carbamoyl-6-azaandrost-4-en-3-one]
19 | < 10 nM | 10 to 100 nM | C[C@]12CC[C@H]3[C@@H](CNC4=CC(=O)CC[C@@]43C)[C@@H]1CC[C@@H]2C(=O)C1CC2CCC1C2 (stereo partly drawn) [Compound 68, 17β-(1-Oxo-1-(2-norbornyl)methyl)-6-azaandrost-4-en-3-one]
20 | < 10 nM | > 100 nM | Cc1cccc(C(C)(C)C)c1NC(=O)[C@H]1CC[C@H]2[C@@H]3CNC4=CC(=O)CC[C@]4(C)[C@H]3CC[C@]12C [Compound 62, 17β-N-(2-t-Butyl-6-methyl)phenyl-carbamoyl-6-azaandrost-4-en-3-one]
21 | < 10 nM | 10 to 100 nM | CC(C)(C)c1ccc(NC(=O)[C@H]2CC[C@H]3[C@@H]4CNC5=CC(=O)CC[C@]5(C)[C@H]4CC[C@]23C)cc1[N+](=O)[O-] [Compound 92, 17β-N-(3-Nitro-4-t-butyl)phenyl-carbamoyl-6-azaandrost-4-en-3-one]
22 | < 10 nM | < 10 nM | CC(C)(C)c1ccc(NC(=O)[C@H]2CC[C@H]3[C@@H]4CNC5=CC(=O)CC[C@]5(C)[C@H]4CC[C@]23C)c([N+](=O)[O-])c1 [Compound 82, 17β-N-(2-Nitro-4-t-butyl)phenyl-carbamoyl-6-azaandrost-4-en-3-one]
23 | 10 to 100 nM | > 100 nM | CC1(C)CC(NC(=O)[C@H]2CC[C@H]3[C@@H]4CNC5=CC(=O)CC[C@]5(C)[C@H]4CC[C@]23C)CC(C)(C)C1 [Compound 59, 17β-N-(3,5-Tetramethyl)cyclohexyl-carbamoyl-6-azaandrost-4-en-3-one]
24 | < 10 nM | < 10 nM | CC(C)(C)c1ccc(NC(=O)[C@H]2CC[C@H]3[C@@H]4CNC5=CC(=O)CC[C@]5(C)[C@H]4CC[C@]23C)c(C(F)(F)F)c1 [Compound 100, 17β-N-(4-t-Butyl-2-trifluoromethyl)phenyl-carbamoyl-6-azaandrost-4-en-3-one]
25 | < 10 nM | < 10 nM | CC(C)(C)c1ccc(Br)cc1NC(=O)[C@H]1CC[C@H]2[C@@H]3CNC4=CC(=O)CC[C@]4(C)[C@H]3CC[C@]12C [Compound 74, 17β-N-(5-Bromo-2-t-butyl)phenyl-carbamoyl-6-azaandrost-4-en-3-one]
26 | < 10 nM | > 100 nM | CC(C)(NC(=O)[C@H]1CC[C@H]2[C@@H]3CNC4=CC(=O)CC[C@]4(C)[C@H]3CC[C@]12C)c1ccccc1 [Compound 63, 17β-N-(1-Methyl-1-phenyl)ethyl-carbamoyl-6-azaandrost-4-en-3-one]
27 | 10 to 100 nM | > 100 nM | CC(C)NC(=O)N(C(=O)[C@H]1CC[C@H]2[C@@H]3CNC4=CC(=O)CC[C@]4(C)[C@H]3CC[C@]12C)C(C)C [Compound 95, 17β-(N-i-Propyl-N-(N-i-propylcarbamoyl))-carbamoyl-6-azaandrost-4-en-3-one]
28 | < 10 nM | < 10 nM | CC(C)(C)c1ccc(Cl)cc1NC(=O)[C@H]1CC[C@H]2[C@@H]3CNC4=CC(=O)CC[C@]4(C)[C@H]3CC[C@]12C [Compound 75, 17β-N-(5-Chloro-2-t-butyl)phenyl-carbamoyl-6-azaandrost-4-en-3-one]
29 | < 10 nM | 10 to 100 nM | CCOC(=O)c1ccccc1NC(=O)[C@H]1CC[C@H]2[C@@H]3CNC4=CC(=O)CC[C@]4(C)[C@H]3CC[C@]12C [Compound 114, 17β-N-(2-Carboethoxy)phenyl-carbamoyl-6-azaandrost-4-en-3-one]
30 | – | 10 to 100 nM | CC(C)(C)N(O)C(=O)[C@H]1CC[C@H]2[C@@H]3CNC4=CC(=O)CC[C@]4(C)[C@H]3CC[C@]12C [Compound 41, 17β-N-Hydroxy-N-t-butyl-carbamoyl-6-azaandrost-4-en-3-one]
